The results in this text go back to ChEMBL document CHEMBL4177571, “Synthesis and biological evaluation of a new series of cinnamic acid amide derivatives as potent haemostatic agents containing a 2-aminothiazole substructure” (Bioorg Med Chem Lett, 2017).

In data set [1] the test system is Plasma. As to the kind of experiment: Haemostatic activity in human plasma assessed as change in rate of thrombin time at 50 uM after 3 mins by thrombin agent based assay relative to control. Format: functional.
Data set [2] has as its system Plasma. Nature of the data set: Haemostatic activity in human plasma assessed as change in rate of activated partial thromboplastin time at 100 uM after 3 mins relative to control. Format: functional.
For data set [3], the system named is Plasma. Nature of the data set: Haemostatic activity in human plasma assessed as change in rate of activated partial thromboplastin time at 10 uM after 3 mins relative to control. Format: functional.
The nature of data set [4]: Thermal stability of the compound at 150 degC by thermogravimetric assay. In kind it is physicochemical.
For data set [5], the system named is Plasma. Nature of the data set: Inhibition of ADP-induced platelet aggregation in human plasma. Format: functional.
In data set [6] the test system is Plasma. As to the kind of experiment: Haemostatic activity in human plasma assessed as change in rate of activated partial thromboplastin time at 50 uM after 3 mins relative to control. Format: functional.
The test system of data set [7] is Plasma. Nature of the data set: Haemostatic activity in human plasma assessed as change in rate of prothrombin time at 100 uM after 3 mins by thromboplastic agent based assay relative to control. In kind it is functional.
Data set [8] concerns Plasma. Nature of the data set: Haemostatic activity in human plasma assessed as change in rate of thrombin time at 10 uM after 3 mins by thrombin agent based assay relative to control. Format: functional.
Data set [9] has as its system Plasma. As to the kind of experiment: Haemostatic activity in human plasma assessed as change in rate of prothrombin time at 5 uM after 3 mins by thromboplastic agent based assay relative to control. In kind it is functional.
Data set [10] concerns Plasma. As to the kind of experiment: Haemostatic activity in human plasma assessed as change in rate of prothrombin time at 1 uM after 3 mins by thromboplastic agent based assay relative to control. Format: functional.
The test system of data set [11] is Plasma. Nature of the data set: Haemostatic activity in human plasma assessed as change in rate of prothrombin time at 50 uM after 3 mins by thromboplastic agent based assay relative to control. In kind it is functional.
Data set [12] deals with Plasma. As to the kind of experiment: Haemostatic activity in human plasma assessed as change in rate of prothrombin time at 10 uM after 3 mins by thromboplastic agent based assay relative to control. In kind it is functional.
Data set [13] has as its system Plasma. As to the kind of experiment: Haemostatic activity in human plasma assessed as change in rate of thrombin time at 1 uM after 3 mins by thrombin agent based assay relative to control. In kind it is functional.
Data set [14] relates to Plasma. As to the kind of experiment: Haemostatic activity in human plasma assessed as change in rate of thrombin time at 100 uM after 3 mins by thrombin agent based assay relative to control. Format: functional.
Data set [15] deals with Plasma. As to the kind of experiment: Haemostatic activity in human plasma assessed as change in rate of activated partial thromboplastin time at 1 uM after 3 mins relative to control. In kind it is functional.
For data set [16], the system named is Plasma. Nature of the data set: Haemostatic activity in human plasma assessed as change in rate of activated partial thromboplastin time at 5 uM after 3 mins relative to control. In kind it is functional.
The subject of data set [17] is Plasma. As to the kind of experiment: Haemostatic activity in human plasma assessed as change in rate of thrombin time at 5 uM after 3 mins by thrombin agent based assay relative to control. Format: functional.

The structures appear in SMILES notation.

On to `O=C(CCc1ccccc1)Nc1nccs1`, for which the Activity with Plasma [1] is on record as -7.02%; with Plasma [2] it was 0.28%; in the data set with Plasma [3] it was -1.85%; with Plasma [6], -1.56%; with Plasma [7], 0%; in the data set on Plasma [8], -5.33%. Further, the Activity with Plasma [9] is listed as -2.44%; in the data set with Plasma [10], -0.56%; in the data set on Plasma [11], -2.81%; in the data set on Plasma [12] it was -3.19%; in the data set with Plasma [13], -3.15%; in the data set with Plasma [14], -7.93%. For the same compound, the values for the Activity with Plasma [15], with Plasma [16] and in the data set with Plasma [17] were 1%, -2.42% and -4.6%, respectively. In addition, the Stability result in [4] is reported as “Stable”. Moreover, in the data set on Plasma [5], it took 45.1 µM to reach half-maximal inhibition (IC50).

Consider `COc1ccc(/C=C/C(=O)Nc2nccs2)cc1OC`, for which the Activity with Plasma [1] is listed as -23.82%; with Plasma [2], 1.97%; with Plasma [3], -1.41%; with Plasma [6], -0.56%; in the data set with Plasma [7], -2.99%; with Plasma [8] it was -22.41%. Moreover, the Activity in the data set on Plasma [9] is given as 0.28%; with Plasma [10] it was -1.7%; in the data set with Plasma [11], -1.49%; in the data set on Plasma [12], -0.22%; in the data set with Plasma [13], -14.62%; with Plasma [14], -14.62%. For the same compound, the results for the Activity with Plasma [15], in the data set on Plasma [16] and in the data set with Plasma [17] were -0.14%, -6.47% and -16.04%, respectively. In data set [4], the Stability entry was “Stable”. For the same compound, inhibition in the data set with Plasma [5] was half-maximal at 54.5 µM (IC50).

As to `COc1cc(/C=C/C(=O)Nc2nccs2)cc(OC)c1OC`, the Activity with Plasma [1] is -21.7%; with Plasma [2] it was 1.69%; with Plasma [3], 2.25%; with Plasma [6], 1.96%; in the data set on Plasma [7], 2.55%; with Plasma [8], -10.14%. In addition, the Activity was -0.95% in the data set with Plasma [9]; 0.56% in the data set with Plasma [10]; 0.55% in the data set with Plasma [11]; 3.22% in the data set on Plasma [12]; -29.01% in the data set with Plasma [13]; -50.24% in the data set with Plasma [14]. Further, the Activity in the data set with Plasma [15] is recorded as 0.56%; in the data set with Plasma [16], 1.55%; with Plasma [17], -22.17%. Besides, the Stability entry in data set [4] is on record as “Stable”. Besides, in the data set with Plasma [5], it took 18.1 µM to reach half-maximal inhibition (IC50).

Consider `COc1ccc(/C=C/C(=O)Nc2nccs2)cc1`, for which the Activity with Plasma [1] was -13.8%; in the data set with Plasma [2] it was -0.71%; in the data set on Plasma [3], 0.14%; in the data set on Plasma [6], 0.28%; in the data set with Plasma [7], -6.75%; with Plasma [8] it was -8.23%. Further, the Activity with Plasma [9] is -2.27%; with Plasma [10], -1.51%; with Plasma [11] it was -0.75%; in the data set on Plasma [12] it was 0%; in the data set with Plasma [13] it was -6.54%; in the data set on Plasma [14] it was -16.95%. In addition, the Activity in the data set on Plasma [15] is reported as -1.28%; in the data set with Plasma [16], -2.7%; with Plasma [17], -7.51%. In addition, the Stability entry in data set [4] is given as “Stable”. Besides, in the data set with Plasma [5], the IC50 (usually the concentration that gives 50% inhibition) came out at 73.7 µM.

For `CC(=O)Oc1ccc(/C=C/C(=O)Nc2nccs2)cc1`, the Activity in the data set on Plasma [1] is recorded as -21.15%; in the data set on Plasma [2], -2.45%; with Plasma [3] it was -3.88%; in the data set on Plasma [6], -2.71%; in the data set on Plasma [7] it was 1.2%; in the data set with Plasma [8], -22.03%. Also, the Activity in the data set with Plasma [9] was -4.4%; with Plasma [10], -3.2%; with Plasma [11], -4.3%; in the data set on Plasma [12], -5.29%; with Plasma [13] it was -11.45%; in the data set with Plasma [14], -6.39%. Moreover, the Activity is -1.68% in the data set with Plasma [15], -3.1% in the data set with Plasma [16] and -14.54% with Plasma [17]. Moreover, the Stability entry in data set [4] was “Stable”. Also, in the data set on Plasma [5], the IC50 was determined as 58.1 µM.

Regarding `COc1cc(/C=C/C(=O)Nc2nccs2)ccc1OC(C)=O`, the Activity in the data set with Plasma [1] is given as -12.35%; in the data set on Plasma [2], -1.85%; in the data set on Plasma [3], -3.42%; with Plasma [6], -6.28%; with Plasma [7] it was -7.32%; in the data set on Plasma [8], -13.06%. For the same compound, the Activity in the data set with Plasma [9] is -2.24%; in the data set on Plasma [10], -1.98%; with Plasma [11], -5.77%; with Plasma [12], -4.39%; in the data set with Plasma [13], -5.76%; in the data set with Plasma [14] it was -11.06%. For the same compound, the Activity with Plasma [15] is listed as -1.14%; with Plasma [16], -2.57%; in the data set with Plasma [17] it was -7.88%. Moreover, the Stability result in data set [4] is recorded as “Stable”. Besides, it took 25.5 µM to reach half-maximal inhibition in the data set with Plasma [5] (IC50).

For `O=C(/C=C/c1ccccc1)Nc1nccs1`, the Activity is reported as -13.66% with Plasma [1]; -2.71% in the data set on Plasma [2]; -9.95% in the data set on Plasma [3]; -6.72% in the data set on Plasma [6]; -3.7% with Plasma [7]; -11.23% in the data set with Plasma [8]. Further, the Activity is on record as -7.09% with Plasma [9]; -5.69% in the data set on Plasma [10]; -4.4% in the data set with Plasma [11]; -5.59% in the data set on Plasma [12]; -7.93% with Plasma [13]; -9.69% with Plasma [14]. Moreover, the Activity in the data set with Plasma [15] was -4.78%; with Plasma [16], -5.81%; with Plasma [17], -10.79%. Further, the Stability entry in [4] is on record as “Stable”. This compound also returned an IC50 with Plasma [5] of 36.6 µM.

In the case of `CC(=O)Oc1ccccc1/C=C/C(=O)Nc1nccs1`, the Activity with Plasma [1] is -26.2%; with Plasma [2], -6.12%; in the data set on Plasma [3], -8.61%; in the data set with Plasma [6], -8.15%; in the data set with Plasma [7], -1.78%; in the data set with Plasma [8], -21.39%. For the same compound, the Activity is reported as -3.25% with Plasma [9]; -1.68% in the data set on Plasma [10]; -2.2% in the data set on Plasma [11]; -4.62% in the data set on Plasma [12]; -2.4% in the data set on Plasma [13]; -21.88% with Plasma [14]. The Activity with Plasma [15] is on record as -5.55%; in the data set on Plasma [16], -9.51%; with Plasma [17], -13.46%. For the same compound, in data set [4], the Stability entry is recorded as “Stable”. In the data set with Plasma [5], this compound yielded an IC50 of 1.87 µM.

With `CC(=O)Oc1cccc(/C=C/C(=O)Nc2nccs2)c1`, the Activity is listed as -19.95% in the data set on Plasma [1]; -8.61% in the data set on Plasma [2]; -10.19% with Plasma [3]; -9.06% in the data set on Plasma [6]; -0.84% in the data set with Plasma [7]; -15.39% with Plasma [8]. The Activity in the data set on Plasma [9] is reported as -1.05%; with Plasma [10], -0.1%; in the data set on Plasma [11] it was -0.42%; in the data set on Plasma [12], -0.73%; with Plasma [13], -5.05%; with Plasma [14], -21.64%. Moreover, the Activity in the data set on Plasma [15] is -4.64%; in the data set on Plasma [16], -6.57%; in the data set on Plasma [17] it was -7.21%. Also, the Stability result in data set [4] is recorded as “Stable”. Moreover, in the data set with Plasma [5], half-maximal inhibition (IC50) was put at 35.5 µM.

As for `CC(=O)Oc1ccc(/C=C/C(=O)Nc2nccs2)cc1OC(C)=O`, the Activity in the data set with Plasma [1] is recorded as -27.89%; with Plasma [2] it was 0%; with Plasma [3] it was -2.94%; with Plasma [6], -2.04%; with Plasma [7], -3.88%; in the data set on Plasma [8] it was -28.13%. Also, the Activity is -4.09% with Plasma [9]; -4.3% in the data set with Plasma [10]; -1.68% in the data set on Plasma [11]; -1.36% in the data set on Plasma [12]; -13.94% in the data set on Plasma [13]; -15.63% in the data set on Plasma [14]. The Activity in the data set on Plasma [15] is reported as -2.94%; with Plasma [16] it was -6%; in the data set on Plasma [17] it was -30.77%. Also, the Stability entry in data set [4] is “Stable”. This compound registered an IC50 in the data set on Plasma [5] of 75.6 µM.

Consider `Nc1nccs1` [AMINOTHIAZOLE], for which the Activity was -5.41% in the data set on Plasma [1]; 2.53% in the data set on Plasma [2]; -0.43% in the data set on Plasma [3]; 0% in the data set on Plasma [6]; -5.43% in the data set with Plasma [7]; -6.47% with Plasma [8]. The Activity is -4.91% in the data set on Plasma [9]; -6.63% in the data set with Plasma [10]; -5.17% in the data set with Plasma [11]; -2.84% in the data set on Plasma [12]; -3.53% with Plasma [13]; -3.53% with Plasma [14]. Moreover, the Activity is on record as -3.71% in the data set with Plasma [15], -2% in the data set on Plasma [16] and -5.06% in the data set on Plasma [17]. Further, half-maximal inhibition with Plasma [5] (IC50) was put at 202 µM.

With `O=S(=O)(O)c1cc(O)ccc1O` [ETHAMSYLATE], in the data set on Plasma [5], 46.2 µM corresponded to half-maximal inhibition (IC50).
